Assays:
[1] = system: Wnt pathway activity (SW480 colon carcinoma cells stably expressing the Sp5-Luc reporter); assay: Wnt pathway activity screening assay (Sp5-Luc reporter gene assay); settings: Homo sapiens, SW480, Table 4; SW480 cells stably expressing Sp5-Luc reporter, 10-point dose-response from 10 μM, 36 to 48 hours
[2] = system: primary human mesenchymal stem cells (hMSCs); assay: Chondrogenesis screening using primary human mesenchymal stem cells; type: cell-based; settings: Homo sapiens, Mesenchymal stem cells, hMSC chondrogenesis; for EC50: concentration required to induce 50% levels of chondrogenesis with TGF-β3 as positive control, read-out: Conc (nM) of 50% TGF-β3 activity; for Emax: maximum activity relative to TGF-β3 (10 ng/mL) positive control, read-out: Max. Activity as % TGF-β3 activity
Method in brief: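 Primary hMSCs at passage 3–6 were treated across compound concentrations, with TGF-β3 as positive control. Chondrogenic nodule area per well was normalized to 3 DMSO wells on the same plate (fold over DMSO, 2–3 replicates). EC50, maximum activity and the dose reaching it were derived.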

CLK3 kinase = CLK3 kinase (Homo sapiens, UniProt P49761); assay: CLK3 kinase activity assay (Z-lyte FRET); type: biochemical; settings: Z-lyte Ser/Thr 18 peptide, 156 μM ATP, 1 h at room temperature;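 also: kinase activity read as coumarin/fluorescein emission ratio by FRET, unphosphorylated peptide as 0% and phosphorylated peptide as 100% control, values from non-linear regression of dose-response curves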
Sequence of CLK3 kinase (P49761 whole entry): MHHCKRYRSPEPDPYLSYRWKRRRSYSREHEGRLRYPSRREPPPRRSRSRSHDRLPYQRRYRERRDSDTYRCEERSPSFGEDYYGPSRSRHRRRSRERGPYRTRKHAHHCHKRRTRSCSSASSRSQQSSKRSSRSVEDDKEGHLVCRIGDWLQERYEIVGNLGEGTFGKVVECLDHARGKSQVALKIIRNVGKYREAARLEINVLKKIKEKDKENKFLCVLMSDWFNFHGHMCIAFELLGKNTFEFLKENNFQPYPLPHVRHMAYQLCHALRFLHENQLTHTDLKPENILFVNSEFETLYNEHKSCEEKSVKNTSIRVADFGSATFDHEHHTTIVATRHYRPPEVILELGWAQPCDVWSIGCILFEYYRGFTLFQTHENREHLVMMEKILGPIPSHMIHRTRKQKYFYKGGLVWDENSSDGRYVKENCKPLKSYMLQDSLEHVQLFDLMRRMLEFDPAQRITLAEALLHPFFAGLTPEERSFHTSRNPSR

CLK2 kinase = CLK2 kinase (Homo sapiens, UniProt P49760); assay: CLK2 kinase activity assay (Z-lyte FRET); type: biochemical; settings: Z-lyte Ser/Thr 6 peptide, 60 μM ATP, 1 h at room temperature;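 also: FRET read-out as coumarin to fluorescein emission ratio, unphosphorylated peptide as 0% and phosphorylated peptide as 100% controls, duplicate reactions, non-linear regression fit of dose-response curves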
Sequence of CLK2 kinase (P49760 whole entry): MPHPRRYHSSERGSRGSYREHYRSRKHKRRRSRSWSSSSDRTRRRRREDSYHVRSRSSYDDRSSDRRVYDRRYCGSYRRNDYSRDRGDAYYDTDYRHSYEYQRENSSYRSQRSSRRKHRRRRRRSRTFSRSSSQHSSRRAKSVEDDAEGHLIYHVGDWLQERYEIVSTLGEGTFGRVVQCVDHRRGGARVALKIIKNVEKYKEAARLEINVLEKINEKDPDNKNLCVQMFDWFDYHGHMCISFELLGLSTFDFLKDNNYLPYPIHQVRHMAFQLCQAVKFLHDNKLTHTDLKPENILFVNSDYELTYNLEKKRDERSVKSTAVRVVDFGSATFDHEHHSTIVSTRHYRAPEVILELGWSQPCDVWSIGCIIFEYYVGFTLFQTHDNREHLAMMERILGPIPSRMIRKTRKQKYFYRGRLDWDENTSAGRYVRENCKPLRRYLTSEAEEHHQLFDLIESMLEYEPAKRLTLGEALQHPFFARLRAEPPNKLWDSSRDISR

Row | SMILES | EC50 [1] [nM] | EC50 [2] [nM] | Emax [2] [%] | EC50 (CLK3 kinase) [nM] | EC50 (CLK2 kinase) [nM]
1 | Cc1ccc(-c2cncc3[nH]c(-c4n[nH]c5cnc(-c6cncc(N)c6)cc45)nc23)s1 [compound 274] | 10.9 | 100 | 162 | 203 | 11
2 | Cc1ccc(-c2cncc3[nH]c(-c4n[nH]c5ccc(-c6cncc(N)c6)nc45)nc23)s1 [compound 276] | 40.7 | 30 | 79.4 | 9 | 2
3 | Cc1ccc(-c2cncc3[nH]c(-c4n[nH]c5cnc(-c6cncc(NC(=O)C7CCC7)c6)cc45)nc23)s1 [compound 277] | 10.1 | 100 | 231 | 29 | 6
4 | CN(C)CCNc1cc(F)cc(-c2cncc3[nH]c(-c4n[nH]c5ncc(-c6cccnc6)cc45)nc23)c1 [compound 278] | 21 | 300 | 129 | 36 | 5
5 | CCCCC(=O)Nc1cncc(-c2ccc3[nH]nc(-c4nc5c(-c6cc(F)cc(NCCN(C)C)c6)cncc5[nH]4)c3n2)c1 [compound 279] | > 10000 | 10 | 64.7 | 93 | 2
6 | CCCCC(=O)Nc1cncc(-c2ccc3[nH]nc(-c4nc5c(-c6cc(F)cc(NCCN(C)C)c6)ccnc5[nH]4)c3n2)c1 [compound 280] | > 10000 | 10 | 71.4 | 79 | 2
7 | CC(C)CC(=O)Nc1cncc(-c2ccc3[nH]nc(-c4nc5c(-c6cc(F)cc(NCCN(C)C)c6)cncc5[nH]4)c3c2)c1 [compound 281] | 22 | – | 82 | 25 | 6
8 | CC(C)Nc1cncc(-c2ccc3[nH]nc(-c4nc5c(-c6cc(F)cc(NCCN(C)C)c6)nccc5[nH]4)c3c2)c1 [compound 282] | 202 | 30 | 85.1 | 50 | 4
9 | CC(C)Nc1cncc(-c2cnc3[nH]nc(-c4nc5c(-c6cc(F)cc(NCCN(C)C)c6)nccc5[nH]4)c3c2)c1 [compound 283] | 154 | 30 | 82.9 | 33 | 4
10 | CCNCc1cncc(-c2ccc3[nH]nc(-c4nc5c(-c6cc(F)cc(NCCN(C)C)c6)nccc5[nH]4)c3n2)c1 [compound 285] | > 10000 | – | 35.6 | 90 | 1
11 | CCNCc1cncc(-c2ccc3[nH]nc(-c4nc5c(-c6cc(F)cc(NCCN(C)C)c6)ccnc5[nH]4)c3n2)c1 [compound 286] | > 10000 | 20.6 | 149 | 82 | 3
12 | Cc1ccncc1-c1cc2c(-c3nc4c(-c5cc(F)cc(CNS(C)(=O)=O)c5)cccc4[nH]3)n[nH]c2cn1 [compound 288] | 30.4 | 30 | 81.8 | 37 | 11
13 | Cc1ccncc1-c1cnc2[nH]nc(-c3nc4c(-c5cc(F)cc(CNS(C)(=O)=O)c5)nccc4[nH]3)c2c1 [compound 289] | 124 | 10 | 92.8 | 39 | 4
14 | Cc1ccncc1-c1cc2c(-c3nc4c(-c5cc(F)cc(CNS(C)(=O)=O)c5)ccnc4[nH]3)n[nH]c2cn1 [compound 291] | 109 | 30 | 70 | 54 | 32
15 | CC(C)CC(=O)Nc1cncc(-c2ccc3[nH]nc(-c4nc5c(-c6cc(F)cc(CNS(C)(=O)=O)c6)cncc5[nH]4)c3c2)c1 [compound 292] | 5 | 100 | 118 | 60 | 9
16 | CS(=O)(=O)NCc1cc(F)cc(-c2nccc3[nH]c(-c4n[nH]c5ccc(-c6cncnc6)cc45)nc23)c1 [compound 293] | 40.5 | 30 | 73.1 | 186 | 16
17 | CN(C)Cc1cncc(-c2cnc3[nH]nc(-c4nc5c(-c6cc(F)cc(N7CCOCC7)c6)cncc5[nH]4)c3c2)c1 [compound 294] | 21 | 30 | 114 | 25 | 1
18 | COc1cccc(-c2nccc3[nH]c(-c4n[nH]c5ccc(-c6cccnc6)nc45)nc23)c1 [compound 295] | 377 | 30 | 50.6 | 96 | 2
19 | COc1cccc(-c2cncc3[nH]c(-c4n[nH]c5ccc(-c6cccnc6)nc45)nc23)c1 [compound 296] | > 10000 | 30 | 59.2 | 55 | 1

Row | SMILES | EC50 [1] [nM] | EC50 [2] [nM] | Emax [2] [%] | EC50 (CLK3 kinase) [nM] | EC50 (CLK2 kinase) [nM]
20 | COc1cccc(-c2ccnc3[nH]c(-c4n[nH]c5ccc(-c6cccnc6)nc45)nc23)c1 [compound 297] | 1610 | 100 | 50.5 | 84 | 1
21 | Fc1cccc(-c2cncc3[nH]c(-c4n[nH]c5ncc(-c6cccnc6)cc45)cc23)c1 [compound 300] | 572 | – | 35.6 | 122 | 8
22 | Fc1cccc(-c2nccc3[nH]c(-c4n[nH]c5ccc(-c6cccnc6)nc45)cc23)c1 [compound 301] | 1350 | – | 44.8 | 105 | 8
23 | CCC(=O)Nc1cncc(-c2ccc3[nH]nc(-c4cc5c(-c6cccc(F)c6)nccc5[nH]4)c3c2)c1 [compound 302] | 45 | – | 16.2 | 46 | 6
24 | CCC(=O)Nc1cncc(-c2ccc3[nH]nc(-c4cc5c(-c6cccc(F)c6)cncc5[nH]4)c3c2)c1 [compound 303] | 45 | – | 33.5 | 85 | 15
25 | CCC(=O)Nc1cncc(-c2ccc3[nH]nc(-c4cc5c(-c6cccc(F)c6)ccnc5[nH]4)c3c2)c1 [compound 304] | 13.2 | – | 167 | 21 | 16
26 | CCC(=O)Nc1cncc(-c2cnc3[nH]nc(-c4cc5c(-c6cccc(F)c6)cncc5[nH]4)c3c2)c1 [compound 305] | 246 | – | 113 | 33 | 3
27 | CCC(=O)Nc1cncc(-c2cc3c(-c4cc5c(-c6cccc(F)c6)nccc5[nH]4)n[nH]c3cn2)c1 [compound 306] | 305 | 30 | 50.8 | 138 | 8
28 | CC(C)C(=O)Nc1cncc(-c2cc3c(-c4cc5c(-c6cccc(F)c6)cncc5[nH]4)n[nH]c3cn2)c1 [compound 307] | 1730 | – | 42.2 | 307 | 13
29 | CN(C)Cc1cncc(-c2ccc3[nH]nc(-c4cc5c(-c6cccc(F)c6)nccc5[nH]4)c3c2)c1 [compound 308] | 2940 | – | 42 | 83 | 7
30 | CN(C)Cc1cncc(-c2ccc3[nH]nc(-c4cc5c(-c6cccc(F)c6)cncc5[nH]4)c3c2)c1 [compound 309] | 1280 | – | 193 | 37 | 3
31 | CN(C)Cc1cncc(-c2cnc3[nH]nc(-c4cc5c(-c6cccc(F)c6)cncc5[nH]4)c3c2)c1 [compound 310] | 1180 | 10 | 110 | 74 | 4
32 | CN(C)Cc1cncc(-c2cc3c(-c4cc5c(-c6cccc(F)c6)nccc5[nH]4)n[nH]c3cn2)c1 [compound 311] | 1850 | 30 | 60 | 218 | 3
33 | Fc1cccc(-c2nccc3[nH]c(-c4n[nH]c5ccc(-c6cncc(CN7CCCCC7)c6)nc45)cc23)c1 [compound 312] | 3750 | – | 48 | 252 | 4
34 | Fc1cccc(-c2cncc3[nH]c(-c4n[nH]c5ncc(-c6cncc(CN7CCCCC7)c6)cc45)cc23)c1 [compound 313] | 3120 | – | 108 | 295 | 18
35 | O=C(Nc1cncc(-c2cc3c(-c4cc5c(-c6ccc(F)cc6)nccc5[nH]4)n[nH]c3cn2)c1)C1CC1 [compound 314] | 844 | 30 | 96.2 | 202 | 10
36 | Fc1ccc(-c2nccc3[nH]c(-c4n[nH]c5ccc(-c6cncc(CN7CCCC7)c6)cc45)cc23)cc1 [compound 315] | 3620 | – | 98.5 | 139 | 3
37 | Fc1ccc(-c2nccc3[nH]c(-c4n[nH]c5cnc(-c6cncc(CN7CCC(F)(F)C7)c6)cc45)cc23)cc1 [compound 316] | 291 | 10 | 61.2 | 417 | 7
38 | Fc1ccc(-c2cncc3[nH]c(-c4n[nH]c5cnc(-c6cncc(CN7CCC(F)(F)C7)c6)cc45)cc23)cc1 [compound 317] | 3260 | 100 | 78.4 | 9840 | 16

Reference: patent US20230000842A1, “METHODS OF TREATING CARTILAGE DISORDERS THROUGH INHIBITION OF CLK AND DYRK” (SAMUMED, LLC, priority 2019, published 2023)
